Consider 13 compounds from patent US20250115578A1, “AROMATIC FUSED RING NAV1.8 INHIBITOR, AND USE THEREOF” (CHENGDU KANGHONG PHARMACEUTICAL CO., LTD., priority 2022, published 2025).

Converted amounts (≈) assume the structure as drawn.

One data set has as its target hNav1.8 (Homo sapiens (Human), UniProt Q9Y5Y9). The experiment in a line: Manual patch clamp, Method 1 (CHO cell line stably expressing hNav1.8). In kind it is cell-based. The note with it: for inhibition at 0.01 µM: 10 nM; for inhibition at 0.01 µM / inhibition at 0.1 µM: Method 1, CHO-hNav1.8, read-out: Inhibition rate of hNav1.8; for inhibition at 0.1 µM: 100 nM; for IC50: Method 1, CHO-hNav1.8, manual patch clamp, resting state, read-out: IC50 inhibitory activity against hNav1.8. The source says:
The patch clamp technique is known as the “gold standard” for studying ion channels, and it uses glass microelectrodes to seal the cell membrane to measure the currents of various membrane channel. […] Patch clamp technology can evaluate the inhibition strength of different compounds on different states of Navs by measuring the changes of membrane channel currents after different compounds bind to different states of Navs.
The representative compounds of the present invention used stable CHO or HEK293 cell lines transfected with specific ion channels to measure the effect of the compounds on Nav1.8 currents by manual patch clamp test, to evaluate their inhibition strength.
The assay protocol of manual patch clamp is as follows:
CHO cell lines with stable expression of hNav1.8 were cultured in F12 medium containing 10% fetal bovine serum at a constant temperature of 37° C., and the carbon dioxide concentration was maintained at 5%. The old culture medium was removed and washed once with PBS, then 1 mL 0.25%-Trypsin-EDTA solution was added and incubated at 37° C. for 1 min. When the cells were detached from the bottom of the dish, 5 mL of the complete medium preheated at 37° C. was added, and the aggregated cells were separated by gently blowing with a straw. The cell suspension was transferred into a sterile centrifuge tube and centrifuged at 1000 rpm for 5 min to collect cells. The cells were then inoculated into a cell culture dish with a diameter of 6 cm (2.5×10^5 cells/petri dish, 5 mL medium) for expansion or maintenance.
In order to maintain the electrophysiological activity of the cells, the cell density must be less than 80%.
The cells were separated with 0.25%-Trypsin-EDTA before the assay, and 5×10^3 cells were seeded on a cover slip and cultured in a 24-well plate (final volume: 500 μL) for 18 h. Then the assay was conducted.
The compounds prepared in the examples of the present invention were dissolved in dimethyl sulfoxide (DMSO) and prepared into DMSO stock solution with a concentration of 10 mM for assay. And it was diluted to various concentrations with extracellular solution (140 mM NaCl, 3.5 mM KCl, 1 mM MgCl2, 2 mM CaCl2), 10 mM Glucose, 10 mM HEPES, 1.25 mM NaH2PO4, pH=7.4 regulated by NaOH), and the final concentration of DMSO in each compound sample was 0.10% or less.
A capillary glass pipette (BF150-86-10, Sutter Instruments) was pulled into a recording electrode with a micropipette puller (P97, Sutter Instruments). The micromanipulator (MP285, Sutter Instruments) was manipulated under an inverted microscope (IX71, Olympus) to make the recording electrode contact the cell and negative pressure suction was applied to achieve a GQ seal. Then, rapid capacitance compensation was performed, and negative pressure was continued, cell membrane was broken by suction, and whole cell recording mode was formed. Then the slow capacitance was compensated and the membrane capacitance and series resistance were recorded without leakage compensation. When the whole cell recording current was stabilized, dosing was initiated, and the next concentration was detected after acting 5 minutes of each drug concentration. Multiple cells were independently repeated during the recording period. All electrophysiological assays were performed at room temperature. Specifically, 6 concentrations (measuring IC50) or 2 concentrations (preliminary screening) were set for each compound, and the percentage of inhibition of sodium channels was determined by calculating the relative percentage of peak current generated before and after each concentration compound treated cells, and the IC50 value or percentage of inhibition at a specific concentration was calculated using IGOR pro software.

Data set [1] is described as follows: Stability assay for human liver microsomes in vitro. Format: in vitro ADME. To be noted: 1 μM compound, 0.5 mg/mL liver microsomes, read-out: Human liver microsome stability T1/2. Here is the method: • Human liver microsomes, purchased from Corning or Xenotech, stored in a −80° C. refrigerator. • Nicotinamide adenine dinucleotide phosphate (NADPH), Chem-impex international, 00616 • Control compounds: testosterone, diclofenac, propafenone
• Water bath (HH-60, Guohua, Changzhou, China) • Pipette workstation (PP-550DS, Apricot, Covina, USA) • Centrifuge (5810R, Eppendorf, Hamburg, Germany) • Mass Spectrometer (Sciex API 4000, Singapore) • High Performance Liquid Chromatography (LC 20-AD, Shimadzu, Kyoto, Japan) • Sampler (ADDA, Apricot Designs, California, USA)
• Stock solution: 10 mM in DMSO • Working solution concentration preparation: 10 mM stock solution was diluted to 100 μM with 100% acetonitrile (organic phase content: 99% ACN, 1% DMSO)
Two 96-well incubation plates were named T60 incubation plate and NCF60 incubation plate.
445 μL microsomal working solution (liver microsomal protein concentration: 0.56 mg/mL) was added to the T60 and NCF60 incubation plates respectively, then the incubation plates above were placed in a water bath at 37° C. for pre-incubation approximately 10 minutes.
After the pre-incubation finished, 5 μL of the test compound working solution was added to the T60 and NCF60 incubation plates respectively, and mixed well. 50 μL potassium phosphate buffer was added to each well on the NCF60 incubation plate to start the reaction. 180 μL termination solution (acetonitrile solution containing 200 ng/mL tolbutamide and 200 ng/mL labetalol) and 6 uL working solution of NADPH regeneration system were added to the TO termination plate, and 54 μL samples were removed from the T60 incubation plate to the TO termination plate (TO sample generated). The reaction was initiated by adding 44 μL of NADPH regenerating system working solution per well on the T60 incubation plate. Only 54 μL microsomal working solution, 6 uL NADPH regeneration system working solution, and 180 μL termination solution were added to the Blank plate. Therefore, in the samples of the test or control compounds, the final reaction concentration of the compounds, testosterone, diclofenac and propafenone was 1 μM, the concentration of the liver microsomes was 0.5 mg/mL, and the final concentration of DMSO and acetonitrile in the reaction system was 0.01% (v/v) and 0.99% (v/v), respectively.
After incubation for an appropriate time (e.g. 5, 10, 20, 30, and 60 minutes), 180 μL of termination solution (acetonitrile solution containing 200 ng/mL tolbutamide and 200 ng/mL labetalol) was added to the sample hole of each termination plate, respectively. After that, 60 μL sample was removed from the T60 incubation plate to terminate the reaction.
All sample plates were shaken evenly and centrifuged at 3220×g for 20 min. Then 80 μL supernatant was taken from each well and diluted to 240 μL pure water for LC-MS/MS analysis.
All samples were injected for analysis.
(In general: Liver microsomes are vesicles of endoplasmic reticulum, rich in cytochrome P450 enzymes.)

Data set [2] can be described thus: Assay of kinetic solubility. In kind it is physicochemical. To be noted: aqueous buffer, kinetic from dmso stock, pH 3.5 phosphate buffer, 25° C. On the procedure: The stock solutions of the test compound and the standard progesterone were prepared in DMSO at the concentration of 10 mM.
30 μL of stock solutions at 10 mM of the test compounds and standard substance were placed in order into their proper 96-well plate. 970 μL phosphate buffer at the specified pH was added to the proper vial of the sample plate. The assay was performed in duplicate. A stirring stick was added to each vial and the teflon/silicone plug was capped. The sample tray was then placed in the Eppendorf Thermomixer Comfort and shaken at 1100 RPM at 25° C. for 2 hours. After 2 hours, plugs were removed, a big magnet was used to remove the stirring sticks, and samples were transferred from the sample plate to the filter plate. Vacuum pump was used to create negative pressure and filtered the samples. Transferred 5 μL of the filtrate to the new sample plate, then added 5 μL DMSO and 490 μL water/acetonitrile (V/V=1/1) to dilute the solvent. The dilution factor may be adjusted according to the solubility values of the substances to be tested or the strength of its LC-MS signal response.
From the 10 mM DMSO stock solution, 15 μL of that was transferred into the empty plate and 485 μL DMSO was added to prepare a 300 μM standard solution. From the 300 μM standard solution plate, 5 μL of that was transferred to another empty plate and 5 μL phosphate buffer at specified pH and 490 μL water/acetonitrile (V/V=1/1) dilution solvent were added to the standard solution to get a final concentration of 3 μM. The concentration of the standard solution may be adjusted according to the strength of its LC-MS signal response.
The sample plate was placed into the sample tray of the automatic sampler and the samples were evaluated by LC-MS/MS analysis.
All calculations were carried out by Microsoft Excel.
The sample filtrate was analyzed and quantified against a standard of known concentrations using LC-MS spectral peaks to identify and quantify. The solubility values of the control drug and the compounds to be tested were calculated as the following formula: • [Sample]: concentration of the sample • AREASample: peak area of the sample • INJ VOLStd: standard sample injection volume • DFSample: sample dilution factor • [STD]: standard substance concentration • AREAStd: peak area of standard substance • INJ VOLSample: sample injection volume

Sequence of hNav1.8 (Q9Y5Y9 whole entry): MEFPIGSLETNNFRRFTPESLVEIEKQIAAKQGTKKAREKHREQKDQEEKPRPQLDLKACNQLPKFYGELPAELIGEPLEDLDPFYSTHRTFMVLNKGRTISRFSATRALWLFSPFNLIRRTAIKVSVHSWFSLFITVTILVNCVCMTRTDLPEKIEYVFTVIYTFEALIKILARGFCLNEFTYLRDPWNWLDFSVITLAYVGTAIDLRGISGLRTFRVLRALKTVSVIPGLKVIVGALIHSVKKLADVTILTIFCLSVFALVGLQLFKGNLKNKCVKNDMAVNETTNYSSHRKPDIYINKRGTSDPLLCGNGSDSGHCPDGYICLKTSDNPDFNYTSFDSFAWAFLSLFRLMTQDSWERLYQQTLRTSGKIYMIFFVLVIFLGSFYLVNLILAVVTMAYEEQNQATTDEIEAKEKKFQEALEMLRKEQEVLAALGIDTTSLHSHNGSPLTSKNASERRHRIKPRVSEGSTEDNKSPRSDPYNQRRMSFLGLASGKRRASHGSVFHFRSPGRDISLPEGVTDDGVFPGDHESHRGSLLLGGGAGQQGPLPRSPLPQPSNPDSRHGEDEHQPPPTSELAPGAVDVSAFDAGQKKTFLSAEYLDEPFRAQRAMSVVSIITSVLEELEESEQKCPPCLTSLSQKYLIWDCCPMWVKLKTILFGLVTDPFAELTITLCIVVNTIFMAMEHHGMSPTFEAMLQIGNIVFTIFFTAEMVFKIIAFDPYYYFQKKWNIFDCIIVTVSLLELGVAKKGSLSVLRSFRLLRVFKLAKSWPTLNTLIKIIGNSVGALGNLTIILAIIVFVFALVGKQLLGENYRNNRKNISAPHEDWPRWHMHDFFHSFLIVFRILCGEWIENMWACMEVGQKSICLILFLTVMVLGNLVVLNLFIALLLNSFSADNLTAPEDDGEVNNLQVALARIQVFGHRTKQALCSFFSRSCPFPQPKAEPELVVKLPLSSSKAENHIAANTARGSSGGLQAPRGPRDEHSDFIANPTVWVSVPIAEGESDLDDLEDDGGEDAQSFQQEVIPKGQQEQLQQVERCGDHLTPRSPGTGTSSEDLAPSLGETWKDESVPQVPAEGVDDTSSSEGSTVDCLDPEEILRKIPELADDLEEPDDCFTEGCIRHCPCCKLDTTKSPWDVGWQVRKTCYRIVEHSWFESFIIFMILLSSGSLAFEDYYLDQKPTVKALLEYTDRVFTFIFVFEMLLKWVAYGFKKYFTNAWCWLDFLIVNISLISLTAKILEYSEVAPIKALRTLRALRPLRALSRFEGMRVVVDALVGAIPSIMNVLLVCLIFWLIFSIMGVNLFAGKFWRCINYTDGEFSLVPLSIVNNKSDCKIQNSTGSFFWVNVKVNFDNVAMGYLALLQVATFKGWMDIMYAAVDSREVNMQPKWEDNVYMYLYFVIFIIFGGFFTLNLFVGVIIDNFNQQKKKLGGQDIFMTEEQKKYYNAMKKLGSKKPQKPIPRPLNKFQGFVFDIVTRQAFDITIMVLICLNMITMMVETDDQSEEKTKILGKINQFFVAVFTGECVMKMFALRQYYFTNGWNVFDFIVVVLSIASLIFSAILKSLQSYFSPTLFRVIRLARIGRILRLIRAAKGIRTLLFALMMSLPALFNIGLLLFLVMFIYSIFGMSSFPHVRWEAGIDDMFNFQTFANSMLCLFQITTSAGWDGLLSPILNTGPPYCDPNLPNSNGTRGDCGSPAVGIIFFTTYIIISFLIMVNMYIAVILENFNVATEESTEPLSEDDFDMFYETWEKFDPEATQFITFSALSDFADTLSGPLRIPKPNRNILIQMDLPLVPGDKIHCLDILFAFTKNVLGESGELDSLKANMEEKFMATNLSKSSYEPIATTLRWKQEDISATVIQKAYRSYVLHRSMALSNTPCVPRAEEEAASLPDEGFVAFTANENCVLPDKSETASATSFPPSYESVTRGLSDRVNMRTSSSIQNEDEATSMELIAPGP

With `NC(=O)c1cc(NC(=O)c2cc3cccnc3cc2N2CCCC(F)(F)CC2)ccc1F` [Example 19, N-(3-carbamoyl-4-fluorophenyl)-7-(4,4-difluoroazepan-1-yl)quinoline-6-carboxamide], on hNav1.8, the inhibition at 0.01 µM came out at 0.44% and the inhibition at 0.1 µM came to 16.6%.

Turning to `NS(=O)(=O)c1cc(NC(=O)c2cc3cc(F)c(F)cc3nc2N2CCCC(F)(F)CC2)ccn1` [Example 17, 2-(4,4-difluoroazepan-1-yl)-6,7-difluoro-N-(2-sulfamoylpyridine-4-yl)quinoline-3-carboxamide], in data set [1], the half-life at 1 µM was > 2.42 h. Further, on hNav1.8, the inhibition at 0.01 µM worked out at 98.3%, the inhibition at 0.1 µM was 100% and the IC50 worked out at 95 pM.

Consider `O=C(Nc1ccc[n+]([O-])c1)c1nc2ccccc2nc1N1CCCC(F)(F)CC1` [Example 01], for which the half-life at 1 µM in data set [1] is > 2.42 h. On hNav1.8, the inhibition at 0.01 µM was 0.36% and the inhibition at 0.1 µM was found to be 41.8%.

As to `O=C(Nc1cn[nH]c(=O)c1)c1nc2ccccc2nc1N1CCCC(F)(F)CC1` [Example 04, 3-(4,4-difluoroazepan-1-yl)-N-(6-carbonyl-1,6-dihydropyridazin-4-yl)quinoxaline-2-carboxamide], the half-life at 1 µM in data set [1] stood at 1.33 h. For the same compound, on hNav1.8, the inhibition at 0.01 µM was found to be 3.33% and the inhibition at 0.1 µM was 46%.

For the compound `NC(=O)c1cc(NC(=O)c2nc3ccccc3cc2N2CCCC(F)(F)CC2)ccc1F` [Example 11, N-(3-carbamoyl-4-fluorophenyl)-3-(4,4-difluoroazepan-1-yl) quinoline-2-carboxamide], on hNav1.8, the inhibition at 0.01 µM is 15.3% and the inhibition at 0.1 µM was 72.8%.

For the compound `COc1ccc2cc(C(=O)Nc3ccnc(C(N)=O)c3)c(N3CCCC(F)(F)CC3)nc2c1` [Example 22, N-(2-carbamoylpyridin-4-yl)-2-(4,4-difluoroazepan-1-yl)-7-methoxyquinoline-3-carboxamide], the inhibition at 0.1 µM at hNav1.8 stood at 90.7%.

Turning to `NS(=O)(=O)c1cccc(NC(=O)c2cc3ccccc3nc2N2CCCC(F)(F)CC2)c1` [Example 13, 2-(4,4-difluoroazepan-1-yl)-N-(3-sulfamoylphenyl)quinoline-3-carboxamide], in data set [2], the kinetic solubility at 2 h is 3.38 µM (≈ 1.56 µg/mL). Also, on hNav1.8, the inhibition at 0.01 µM worked out at 95.6% and the inhibition at 0.1 µM is 99.7%.

For the compound `NC(=O)c1cc(NC(=O)c2cc3cc(F)c(F)cc3nc2N2CCCC(F)(F)CC2)ccc1F` [Example 21, N-(3-carbamoyl-4-fluorophenyl)-2-(4,4-difluoroazepan-1-yl)-6,7-difluoroquinoline-3-carboxamide], in data set [1], the half-life at 1 µM is 0.943 h. Besides, on hNav1.8, the IC50 is 360 pM.

With `NC(=O)c1cc(NC(=O)c2cc3cccnc3cc2N2CCCC(F)(F)CC2)ccn1` [Example 18, N-(2-carbamoylpyridin-4-yl)-7-(4,4-difluoroazepan-1-yl)quinoline-6-carboxamide], at hNav1.8, the inhibition at 0.01 µM is -3.14% and the inhibition at 0.1 µM is 21.5%.

In the case of `NC(=O)c1cc(NC(=O)c2nc3ccccc3cc2N2CCCC(F)(F)CC2)ccn1` [Example 15, N-(2-carbamoylpyridin-4-yl)-3-(4,4-difluoroazepan-1-yl) quinoline-2-carboxamide], at hNav1.8, the inhibition at 0.01 µM was found to be 15.4% and the inhibition at 0.1 µM stood at 49.9%.

Consider `NC(=O)c1cccc(NC(=O)c2cc3cc(F)c(F)cc3nc2N2CCCC(F)(F)CC2)c1` [Example 12, N-(3-carbamoylphenyl)-2-(4,4-difluoroazepan-1-yl)-6,7-difluoroquinoline-3-carboxamide], for which, at hNav1.8, the inhibition at 0.01 µM came out at 95.8% and the inhibition at 0.1 µM was found to be 100%.

Take `NC(=O)c1cc(NC(=O)c2nc3ccc(Cl)cc3cc2N2CCCC(F)(F)CC2)ccn1` [Example 20, N-(2-carbamoylpyridin-4-yl)-6-chloro-3-(4,4-difluoroazepan-1-yl)quinoline-2-carboxamide]: at hNav1.8, the inhibition at 0.01 µM was found to be 19.5% and the inhibition at 0.1 µM was 81.1%.

Regarding `O=C(Nc1cc[nH]c(=O)c1)c1nc2ccccc2nc1N1CCCC(F)(F)CC1` [Example 03, 3-(4,4-difluoroazepan-1-yl)-N-(2-carbonyl-1,2-dihydropyridin-4-yl)quinoxaline-2-carboxamide], in data set [1], the half-life at 1 µM was 1.32 h. Further, on hNav1.8, the inhibition at 0.01 µM was 19.7% and the inhibition at 0.1 µM amounted to 70%.

The inhibition is the drop in the measured response relative to a control, in per cent. A word on the IC50: it is the concentration that gives 50% inhibition. The solubility (kinetic) is solubility judged after dilution from a stock solution rather than from solid.
